This is an account of results in patent publication EP0863769B1 (priority 1996, dated 1998).

For assay [1], the target named is A/NIB/47/89 M. Format: binding, Influenza Viren. The conditions noted are these: read-out: Affinität der Bindung an Virus, Kaff.
The target in assay [2] is A/NIB/3/90 M. It is filed as binding, Influenza Viren. As to conditions: read-out: Affinität der Bindung an Virus, Kaff.
Assay [3] addresses A/NIB/44/90 M. Format: binding, Influenza Viren. The conditions noted are these: read-out: Affinität der Bindung an Virus, Kaff.
In assay [4] the target is A/England/157/83 M. Format: binding, Influenza Viren. As to conditions: read-out: Affinität der Bindung an Virus, Kaff.
Assay [5] addresses A/NIB/12/89 M. It is filed as binding, Influenza Viren. The conditions noted are these: read-out: Affinität der Bindung an Virus, Kaff.
The target of assay [6] is A/NIB/23/89 M. It is filed as binding, Influenza Viren. The conditions noted are these: read-out: Affinität der Bindung an Virus, Kaff.
Assay [7] deals with A/NIB/50/89 M. It is filed as binding, Influenza Viren. As to conditions: read-out: Affinität der Bindung an Virus, Kaff.
Assay [8] concerns the target B/England/222/82 M. It is filed as binding, Influenza Viren. The conditions noted are these: read-out: Affinität der Bindung an Virus, Kaff.
The target in assay [9] is B/NIB/48/90 M. It is filed as binding, Influenza Viren. The conditions noted are these: read-out: Affinität der Bindung an Virus, Kaff.
Assay [10] deals with B/NIB/15/89 M. It is filed as binding, Influenza Viren. The conditions noted are these: read-out: Affinität der Bindung an Virus, Kaff.
In assay [11] the test system is menschlicher Influenza Viren der Typen A und B. Format: binding.

Regarding “Poly-N-(2-Hydroxyethyl)-acrylamid mit 20% mol. 6SLN [6SLN-PAA]”, the Kd was determined as 10 nM in assay [1]; 10 nM in assay [2]; 10 nM in [3]; 30 nM in assay [4]; 100 nM in assay [5]; 20 nM in assay [6]. Also, the Kd in [7] came out at 20 nM; in assay [8], 40 nM; in assay [9], 40 nM; in assay [10] it was 20 nM. Further, in assay [11], the “Inhibition der viralen Zelladhäsion” value is on record as “hervoragender Inhibitor aller authentischer Influenza Stämme”.
